Experiments:
[1] = system: T. cruzi trypomastigotes adhering to glutaraldehyde-fixed Vero cells; assay: Inhibition of trypomastigote binding to Vero cells; assay type: cell-based, Trypanosoma cruzi; settings: trypomastigotes preincubated 30 min at 37° C., binding 60 min
Procedure: In these experiments attachment of trypomastigotes to Vero cell monolayers was measured as follows. Briefly, Vero cells were maintained in RPMI 1640 supplemented with heat-inactivated 1% Nu-serum (Collaborative Research Inc., Bedford, Mass.), penicillin (100 U/ml) and streptomycin ([…]). Unless noted otherwise, cells were maintained in plastic tissue culture flasks (150 cm^2, Bellco, Vineland, N.J.) and incubated at 37° C. in a humidified atmosphere containing 5% CO2 and 95% air. Cells were propagated every 1-2 weeks after trypsin-EDTA digestion (0.5 g trypsin, 0.2 g EDTA in HBSS without Ca^++ and Mg^++) in 16-well Lab-Tek® chamber slide™ (Nunc, Inc., Naperville, Ill.. Prior to binding experiments Vero cells were removed with trypsin and plated on 96-well tissue culture plates (Bellco, Vineland, N.J.) or in 16-well Lab-Tek® chamber slide™ at a density of 7.5×10^3 cells per well. After 24 h, the medium was removed, cells were washed twice with PBS, pH 7.2, and fixed for 5 min at 4° C. by addition of 2% glutaraldehyde (grade I, Sigma Chemical Co., St. Louis, Mo.) in PBS. Cell monolayers were washed twice with PBS, pH 7.2 and incubated overnight at 4° C. in 0.16M ethanolamine, pH 8.3 to block residual free […] amino groups. The next day, cell monolayers were washed three times with PBS as above, and two times with 1% BSA/RPMI-1640 and kept at least 1 h at 37° C. in the same medium.
Trypomastigotes, [^35 S]-labeled as described above, were added to the cell monolayers in a total volume of 100 μl/well and the plates were incubated for 1 h at 37° C. Each well was then washed five times with 100 μl prewarmed PBS (pH 7.2). The [^35 S] label was solubilized with 2M NaOH and the bound radioactivity was determined in a liquid scintillation counter. Alternatively, unlabeled trypomastigotes were added to wells of a 16-well Lab-Tek® chamber slide™ and incubated as above. After removing the plastic chamber, the slide was washed by dipping 5 times in PBS (pH 7.2) and immersed upside-down in 4% paraformaldehyde in PBS, containing 7% sucrose. Finally, the slide was rinsed with PBS, stained with Diff-Quik®and the number of bound T. cruzi were determined by counting under light microscopy. For inhibition studies, trypomastigotes were preincubated 30 min at 37° C. with the appropriate proteoglycan in 100 μl of 1% BSA-RPMI- 1640 before addition to cell monolayers. Binding was determined in triplicate at each inhibitor concentration and in the absence of inhibitor.
In this assay 100% binding was taken to 5 ×10^4 trypomastigotes/well bound in 60 min.

[2] = system: T. cruzi trypomastigotes infecting Vero cells; assay: Inhibition of T. cruzi infection of Vero cells; assay type: cell-based, Trypanosoma cruzi; settings: for effect on infection: FIG. 4, even at high concentrations; for concentration causing 50% reduction of infection: FIG. 4, parasites preincubated 30 min, 2 h interaction, 3 days culture
Procedure: In these experiments, cultured Vero cells were released with trypsin/EDTA, plated at 7.5×10^3 cells/well in 16-well Lab-Tek® chamber slides™ for 24 h, and used for infection at ~75% confluence. Trypomastigotes were harvested, washed with serum-free RPMI containing 1% BSA, and mixed with various concentrations of proteoglycans. After 30 min at 37° C., 5×10^5 parasites in a total volume of 100 μl were added to each well containing subconfluent cultures of Vero cells and allowed to interact for 2 h at 37° C. At the end of the incubation time, cell monolayers were rinsed three times with serum-free medium, and further incubated in RPMI-1640 containing 1% Nu-serum for 3 days at 37° C. Finally, monolayers were washed, stained with Diff-Quik®, and examined under a microscope to estimate the ratio of infected (i.e., Vero cell containing more than one intracellular amastigote) to non-infected Vero cells. In order to establish if the inhibitory effect was due to interaction of heparin and heparan sulfate with trypomastigotes rather than to Vero cells, parasites or host cells were preincubated with the putative inhibitors, washed extensively, and assayed for infection as above.

[3] = system: T. cruzi penetrin (60 kD trypomastigote heparin-binding protein), column-purified; assay: Binding of column-purified [125I]-labeled penetrin to heparin-Sepharose; set-up: species or system Trypanosoma cruzi; settings: compound 100 μg/ml; Bovine Serum Albumin control 1.9
Procedure: To determine if [^125 I]-labeled penetrin was still active in binding extracellular matrix proteins after isolation by heparin affinity chromatography, rebinding and inhibition of rebinding to heparin-Sepharosebeads was performed. Briefly, column purified [^125 I]-labeled penetrin was incubated with or without compounds and mixed with 100 μl of heparin-Sepharose. The mixture was incubated at room temperature for 2 h under slow rocking. The slurry was then centrifuged (500× g, 5 min), washed three times with PBS, and bound radioactivity determined in a gamma counter. Referring to FIG. 7, in the absence of competitors, column-purified [^125 I]-labeled penetrin retained its ability to bind heparin-Sepharose.
For inhibition experiments, an aliquot of the purified heparin-binding protein was mixed with putative inhibitors for 1 h at room temperature, and the mixture added to 100 μl of heparin-Sepharose as above. The amount of [^125 I]-labeled protein retained by the agarose beads was assessed by elution of the protein with 1% SDS, SDS-polyacrylamide gel electrophoresis and autoradiography, and quantitated in a laser scanning densitometer (Pharmacia LKB, Ultroscan XL). One hundred percent binding was taken as the amount of protein retained by the heparin-Sepharose in the absence of added inhibitor. Referring to Table 2, adsorption of penetrin was inhibited by pre-incubation with soluble heparin, heparan sulfate or collagen, but not with other glycosaminoglycans (chondroitin sulfate and hyaluronic acid).

[4] = system: T. cruzi penetrin (60 kD trypomastigote heparin-binding protein), column-purified; assay: Binding of column-purified [125I]-labeled penetrin to fibroblasts (Vero cells); set-up: species or system Trypanosoma cruzi
Procedure: Binding of [^125 I]-labeled penetrin to Vero cells was assayed as follows. Vero cells, grown in multiwell plates to confluence as described above, were rinsed once with 1% BSA-RPMI-1640, and incubated at 37° C. with increasing concentrations of [^125 I]-labeled penetrin. After 1 h the medium was removed, cell monolayers were washed three times with PBS, solubilized with 100 μl of 2M NaOH, and the retained radioactivity measured in a gamma counter. For inhibition experiments, an aliquot of [^125 I]-labeled penetrin was preincubated with the potential inhibitors prior to adding to confluent cells, and processed as above.

[5] = system: E. coli XL-1 Blue with clone HBP-6 expressing penetrin, entering Vero cells; assay: Penetrin-mediated entry of E. coli into Vero cells (gentamicin survival); assay type: cell-based, Escherichia coli; settings: 250 μg/ml; for inhibition of penetration of bacteria: E. coli preincubated with inhibitor; for survival of bacteria after gentamicin: 4.3% without inhibitor
Procedure: E. coli expressing penetrin are able to enter nonphagocytic mammalian cells which normally exclude E. coli. […] Recombinant bacteria were grown overnight at 37°, washed twice in PBS, resuspended at 10^8 cells/ml, and aliquots of 2×10^7 E coli were added to monolayers of 2×10^5 Vero cells per microliter well in 1 ml of RPMI 1640 medium containing 1% BSA. Bacteria were centrifuged onto the cell monolayer, and the cultures were incubated at 37° for 3 h in a 5% CO2 /95% air atmosphere, washed three times with sterile PBS, and incubated for an additional 1.5 h at 37° C. in RPMI 1640 medium containing 1% BSA and 75 μg/ml gentamicin (to kill bacteria bound to outer membrane). The monolayers were then washed three times in sterile PBS, and lysed with 0.5% Triton X-100 in deionized water to release internalized bacteria, which were quantitated in agar plates.

T. cruzi trypomastigotes = assay: Trypomastigote binding to heparin- or collagen-coated wells; assay type: cell-based, Trypanosoma cruzi; settings: soluble compound
Procedure: Proteoglycans (dissolved in PBS) and collagen solubilized in 0.1N HCl and neutralized in PBS) were adsorbed onto plastic (Falcon 3912 polyvinylchloride 96-well microliter plates) by incubation overnight at 4° C. (Roberts et al., J. BioI. Chem. 264:9289, 1989). The unbound proteins were removed, the wells filled with 1% heat-treated BSA in PBS (56° C., 60 min and filtered in […] nitrocellulose filters to remove insoluble particles) and incubated for 1 h at room temperature. The wells were then washed twice with PBS (pH 7.2) and rinsed with RPMI 1640 containing 1% BSA. T. cruzi trypomastigotes, labeled with [^35 S] methionine, were resuspended in RPMI-BSA and 100 μl of the suspension was applied to the wells. After various periods of incubation at 37° C., the wells were carefully washed three times with 37° C. PBS (pH 7.2). T. cruzi bound to the plastic-bound proteoglycans were then solubilized with 100 μ l of 2 M NaOH, mixed with Ultrafluor (National Diagnostics, Manville, N.J.), and assayed by liquid scintillation counting. Referring to FIG. 1a, adherence of trypomastigotes to heparin-coated plates increased linearly with the length of incubation up to about 60 min. In a separate experiment trypomastigotes were added for 60 min, but the number added was varied. […] In contrast, non-specific binding to BSA-coated wells was less than 2%.

Row | Substance | % Vero Cells with Trypomastigotes ([1]; inhibitor 250 μg/ml) [%] | effect on infection [2] | Penetrin Bound [3] [cpm × 10^-3] | % Inhibition of penetrin binding to fibroblasts ([4]; compound 250 μg/ml) [%] | effect on E. coli entry (in words) [5] | % Vero Cells with Trypomastigotes ([1]; inhibitor 125 μg/ml) [%] | concentration causing 50% reduction of infection [2] [µg/mL] | inhibition of binding of [125I]-labeled penetrin to Vero cell monolayers (in words) [4] | % Inhibition of penetrin binding to fibroblasts ([4]; compound 5 μg/ml) [%] | % Inhibition of penetrin binding to fibroblasts ([4]; compound 25 μg/ml) [%] | % Inhibition of penetrin binding to fibroblasts ([4]; compound 50 μg/ml) [%] | % Inhibition of penetrin binding to fibroblasts ([4]; compound 100 μg/ml) [%] | inhibition of penetration of bacteria [5] [%] | survival of bacteria after gentamicin [5] [%] | inhibition of trypomastigote binding to coated wells (in words) (T. cruzi trypomastigotes)
1 | Chondroitin Sulfate | 96 | little effect on infection | 1.6 | 12 | without effect |  |  |  |  |  |  |  |  |  | 
2 | Heparin | 12.5 |  | 0.7 | 91 |  | 50 | 100 | inhiited | 25 | 55 | 75 | 89 | 85 | 0.6 | inhibited
3 | Hyaluronic Acid | 98 | little effect on infection | 1.8 |  | without effect |  |  |  |  |  |  |  |  |  | 
4 | Heparan Sulfate | 18 |  | 0.75 | 65 |  | 60 | 1.5 | inhiited |  |  |  |  | 85 | 0.6 | inhibited
